{"source": "patent US10183019B2", "about": "“Treatment of cancer with dihydropyrazino-pyrazines” (Signal Pharmaceuticals, LLC, priority 2013, dated 2019)", "key": {"[1]": {"test_system": "patient-derived GBM cell line 308", "assay": "Gliomasphere Formation Assay", "assay_type": "cell-based", "conditions": "cell line 308, Recurrent, MGMT Unkn/Highly Expressed; 50% sphere formation vs DMSO control", "method": "(§1) Primary patient-derived GBM tumor samples were dissociated and plated under culture conditions (i.e. DMEM/F12 medium supplemented with B27, 20 ng/mL bFGF, 50 ng/mL EGF, penicillin/streptomycin, L-glutamine and 5 ug/mL heparin) that produce gliomaspheres. Cells were plated at a density of 50 cells per well and allowed to acclimate overnight at 37° C. The Dihydropyrazino-Pyrazine Compounds were added to the cultures on Day 2 and replenished every 7 days. EGF and FGF were also replenished every 7 days. The cells were fixed with PFA/methanol when the smallest sphere was greater than 60 microns, typically 3-5 weeks. The cells were fixed with PFA/methanol and the next day assessed for cell number, using for example, SYTO-9 fluorescent DNA dye. Plates were read 48 h later with a laser scanning imager."}, "[2]": {"test_system": "patient-derived GBM cell line 350", "assay": "Gliomasphere Formation Assay", "assay_type": "cell-based", "conditions": "cell line 350, Recurrent; 50% sphere formation vs DMSO control", "method": "as §1"}, "[3]": {"test_system": "patient-derived GBM cell line 245", "assay": "Gliomasphere Formation Assay", "assay_type": "cell-based", "conditions": "cell line 245, Recurrent; 50% sphere formation vs DMSO control", "method": "as §1"}, "[4]": {"test_system": "patient-derived GBM cell line 217", "assay": "Gliomasphere Formation Assay", "assay_type": "cell-based", "conditions": "cell line 217, Primary; 50% sphere formation vs DMSO control", "method": "as §1"}, "[5]": {"test_system": "patient-derived GBM cell line 296", "assay": "Gliomasphere Formation Assay", "assay_type": "cell-based", "conditions": "cell line 296, Recurrent, MGMT status −; 50% sphere formation vs DMSO control", "method": "as §1"}, "[6]": {"test_system": "patient-derived GBM cell line 254", "assay": "Gliomasphere Cell Number Assay", "assay_type": "cell-based", "conditions": "cell line 254, Recurrent; 50% cell numbers vs DMSO control, Day 2 to Day 9; read-out: IC50 Cell Survival", "method": "(§2) Gliomasphere Cell Number Assay. Primary patient-derived GBM tumor samples were dissociated and plated under culture conditions that produce gliomaspheres (i.e. DMEM/F12 medium supplemented with B27, 20 ng/mL bFGF, 50 ng/mL EGF, penicillin/streptomycin, L-glutamine and 5 ug/mL heparin). Cells were plated at a density of 5000 cells/well and allowed to acclimate overnight at 37° C. The Dihydropyrazino-Pyrazine Compounds were added to the cultures on Day 2 and cells were kept in culture until Day 9. On Day 9, the cells were fixed with PFA/methanol and the next day assessed for cell number, using for example, SYTO-9 fluorescent DNA dye. Plates were read 48 h later with a laser scanning imager."}, "[7]": {"test_system": "patient-derived GBM cell line 206", "assay": "Gliomasphere Cell Number Assay", "assay_type": "cell-based", "conditions": "cell line 206, Recurrent, MGMT Unkn/Highly Expressed; 50% cell numbers vs DMSO control, Day 2 to Day 9; read-out: IC50 Cell Survival", "method": "as §2"}, "[8]": {"test_system": "patient-derived GBM cell line 336", "assay": "Gliomasphere Cell Number Assay", "assay_type": "cell-based", "conditions": "cell line 336, Recurrent, MGMT status +; 50% cell numbers vs DMSO control, Day 2 to Day 9; read-out: IC50 Cell Survival", "method": "as §2"}, "[9]": {"test_system": "patient-derived GBM cell line 378", "assay": "Gliomasphere Cell Number Assay", "assay_type": "cell-based", "conditions": "cell line 378, Recurrent, MGMT status −; 50% cell numbers vs DMSO control, Day 2 to Day 9; read-out: IC50 Cell Survival", "method": "as §2"}, "[10]": {"test_system": "patient-derived GBM cell line 347", "assay": "Gliomasphere Cell Number Assay", "assay_type": "cell-based", "conditions": "cell line 347, Recurrent, MGMT status −; 50% cell numbers vs DMSO control, Day 2 to Day 9; read-out: IC50 Cell Survival", "method": "as §2"}, "[11]": {"test_system": "patient-derived GBM cell line 277", "assay": "Gliomasphere Cell Number Assay", "assay_type": "cell-based", "conditions": "cell line 277, Secondary/Recurrent; 50% cell numbers vs DMSO control, Day 2 to Day 9; read-out: IC50 Cell Survival", "method": "as §2"}, "[12]": {"test_system": "patient-derived GBM cell line 157", "assay": "Gliomasphere Cell Number Assay", "assay_type": "cell-based", "conditions": "cell line 157, Primary, MGMT status −; 50% cell numbers vs DMSO control, Day 2 to Day 9; read-out: IC50 Cell Survival", "method": "as §2"}, "[13]": {"test_system": "patient-derived GBM cell line 250", "assay": "Gliomasphere Cell Number Assay", "assay_type": "cell-based", "conditions": "cell line 250, Recurrent, MGMT Unkn/Highly Expressed; 50% cell numbers vs DMSO control, Day 2 to Day 9; read-out: IC50 Cell Survival", "method": "as §2"}, "[14]": {"test_system": "patient-derived GBM cell line 217", "assay": "Gliomasphere Cell Number Assay", "assay_type": "cell-based", "conditions": "cell line 217, Primary; 50% cell numbers vs DMSO control, Day 2 to Day 9; read-out: IC50 Cell Survival", "method": "as §2"}, "[15]": {"test_system": "patient-derived GBM cell line 296", "assay": "Gliomasphere Cell Number Assay", "assay_type": "cell-based", "conditions": "cell line 296, Recurrent, MGMT status −; 50% cell numbers vs DMSO control, Day 2 to Day 9; read-out: IC50 Cell Survival", "method": "as §2"}, "[16]": {"test_system": "HF2354 PDX (GBM neurosphere line HF2354)", "assay": "Patient derived xenograft (PDX) survival study", "assay_type": "in vivo, nude mouse", "conditions": "HF2354 PDX in nude mice; 10 mg/kg oral gavage once a day, Monday through Friday", "method": "FIG. 2: Kaplan-Meier survival analysis for HF2354 PDX line (end of study). Treatment schedule for survival (Rx) and target hit (TH) are indicated.\nImmunocompromised mice (nude mouse NCRNU-M, TACONIC) were implanted with a GBM neurosphere line derived from fresh surgical specimens. The cell line was characterized as following:\nPatient derived xenograft (PDX) treatments started four weeks prior to when the first animal was expected to become symptomatic. […] Control animals were administered vehicle alone. Target hit cohorts were treated with one dose of each compound and sacrificed 2 and 24 h later (n=3/group). As necessary, fluids and supplemental food were administered to ameliorate weight loss."}, "[17]": {"test_system": "patient-derived GBM cell line 206", "assay": "Combination effect of Compound 1 and TMZ on cell survival (fractional product)", "assay_type": "cell-based", "conditions": "168 h, 7 days, read-out: % Actual inh.", "source_text": "(§3) TMZ is an alkylating agent that delivers a methyl group to the purine bases of DNA (O^6-guanine; N^7-guanine and N^3-adenine). The cytotoxic lesion, O^6-methylguanine (O^6-MeG), caused by TMZ can be directly removed by methylguanine methyltransferase (MGMT) via direct repair and can also activate mechanisms of mismatch repair (MMR). Futile cycles of MMR lead to the formation of double-stranded DNA breaks and activation of the DNA-PK mediated mechanisms of double-stranded break repair.\n(§4) Tumorspheres grown under tumorsphere culture conditions were harvested, dissociated into single cells, and plated at 5,000 cells/well in 96-well plates. […] When the value of the column % actual inhibition divided by % inhibition calculated based on summation is >1=synergism, ˜1=summation, <1=antagonism."}, "[18]": {"test_system": "patient-derived GBM cell line 217", "assay": "Combination effect of Compound 1 and TMZ on cell survival (fractional product)", "assay_type": "cell-based", "conditions": "168 h, 7 days, read-out: % Actual inh.", "source_text": "as §3, §4"}}}
{"smiles": "CO[C@H]1CC[C@H](N2C(=O)CNc3ncc(-c4ccc(C(C)(C)O)nc4)nc32)CC1", "note": "[Compound 2, 7-(6-(2-hydroxypropan-2-yl)pyridin-3-yl)-1-((1r,4r)-4-methoxycyclohexyl)-3,4-dihydropyrazino-[2,3-b]pyrazin-2(1H)-one]", "values": [{"measurement": "IC50", "setting": "[1]", "result": 76.7, "unit": "nM"}, {"measurement": "IC50", "setting": "[2]", "result": 244, "unit": "nM"}, {"measurement": "IC50", "setting": "[3]", "result": 65.1, "unit": "nM"}, {"measurement": "IC50", "setting": "[4]", "result": 68.9, "unit": "nM"}, {"measurement": "IC50", "setting": "[5]", "result": 1700, "unit": "nM"}, {"measurement": "IC50", "setting": "[6]", "result": 216, "unit": "nM"}, {"measurement": "IC50", "setting": "[7]", "result": 118, "unit": "nM"}, {"measurement": "IC50", "setting": "[8]", "result": 866, "unit": "nM"}, {"measurement": "IC50", "setting": "[9]", "result": 156, "unit": "nM"}, {"measurement": "IC50", "setting": "[10]", "result": 173, "unit": "nM"}, {"measurement": "IC50", "setting": "[11]", "result": 106, "unit": "nM"}, {"measurement": "IC50", "setting": "[12]", "result": 171, "unit": "nM"}, {"measurement": "IC50", "setting": "[13]", "result": 50.7, "unit": "nM"}, {"measurement": "IC50", "setting": "[14]", "result": 96.3, "unit": "nM"}, {"measurement": "IC50", "setting": "[15]", "result": 257, "unit": "nM"}, {"measurement": "survival (Kaplan-Meier)", "setting": "[16]", "result": "No effect in survival"}]}
{"smiles": "Cn1nnc2c(C(N)=O)ncn2c1=O", "note": "[TMZ, Temozolomide]", "values": [{"measurement": "inhibition at 25 µM", "setting": "[17]; TMZ 25 μM alone", "result": 11.4, "unit": "%"}, {"measurement": "inhibition at 50 µM", "setting": "[17]; TMZ 50 μM alone", "result": 0, "unit": "%"}, {"measurement": "inhibition at 100 µM", "setting": "[17]; TMZ 100 μM alone", "result": 0, "unit": "%"}, {"measurement": "inhibition at 200 µM", "setting": "[17]; TMZ 200 μM alone", "result": 4.3, "unit": "%"}, {"measurement": "inhibition at 25 µM", "setting": "[18]; TMZ 25 μM alone", "result": 69, "unit": "%"}, {"measurement": "inhibition at 50 µM", "setting": "[18]; TMZ 50 μM alone", "result": 73, "unit": "%"}, {"measurement": "inhibition at 100 µM", "setting": "[18]; TMZ 100 μM alone", "result": 77, "unit": "%"}]}
